≈ marks a conversion by molar mass, not a printed value. Read-outs that look alike come from different tables or passages of the source. Marks after values point to notes of the source that are not given here.
Columns and labels:
[1] = tested on: Pseudomonas aeruginosa (PA) isolates; experiment: Clinical Trial I: MIC for PA isolates; format: cell-based; details: for MIC50 / MIC90 / MIC: Pseudomonas aeruginosa
CF patients = details: cited from earlier work
PA = details: cited from earlier work
[2] = Clinical Trial II: sputum and plasma aztreonam concentrations; format: in vivo; details: human, sputum, inhaled, 75 mg, sputum aztreonam concentration, median (range), 10 minutes postdose
[3] = tested on: Pseudomonas aeruginosa (PA) isolates; experiment: Clinical Trial II: MIC of aztreonam for PA isolates; format: cell-based
[4] = Colistin, N = 62, 80 BID/28 days

## NC[C@H]1O[C@H](O[C@H]2[C@H](O)[C@@H](O[C@H]3O[C@H](CO)[C@@H](O)[C@H](N)[C@H]3O)[C@H](N)C[C@@H]2N)[C@H](N)C[C@@H]1O [tobramycin]
[1]; Days −28 to 56
  MIC50 and MIC90 of tobramycin for PA isolates, change: ≤ 4 fold
[1]; isolates of AZLI-BID group, Day −28, read-out: MIC50 of tobramycin for all PA isolates
  MIC50: 1 µg/mL (≈ 2.14 µM)
[1]; isolates of AZLI-BID group, Day −28, read-out: MIC90 of tobramycin for all PA isolates
  MIC90: 16 µg/mL (≈ 34.2 µM)
[1]; isolates of AZLI-Pooled group, Day −28, read-out: MIC50 of tobramycin for all PA isolates
  MIC50: 1 µg/mL (≈ 2.14 µM)
[1]; isolates of AZLI-Pooled group, Day −28, read-out: MIC90 of tobramycin for all PA isolates
  MIC90: 32 µg/mL (≈ 68.4 µM)
[1]; isolates of AZLI-TID group, Day −28, read-out: MIC50 of tobramycin for all PA isolates
  MIC50: 2 µg/mL (≈ 4.28 µM)
[1]; isolates of AZLI-TID group, Day −28, read-out: MIC90 of tobramycin for all PA isolates
  MIC90: 64 µg/mL (≈ 137 µM)
[1]; isolates of Placebo group, Day −28, read-out: MIC50 of tobramycin for all PA isolates
  MIC50: 2 µg/mL (≈ 4.28 µM)
[1]; isolates of Placebo group, Day −28, read-out: MIC90 of tobramycin for all PA isolates
  MIC90: 256 µg/mL (≈ 548 µM)
CF patients; 600 TID, N = 36
  FEV1 Change (absolute change in FEV1 % predicted, comparison to control after 28 days of therapy): 10%^a
PA; Tobramycin 600 TID, N = 36
  PA Density Change (Log10): −2.0 Log10

## C[C@H]1[C@H](NC(=O)/C(=N\OC(C)(C)C(=O)O)c2csc(N)n2)C(=O)N1S(=O)(=O)O [aztreonam]
[1]; 0 h, read-out: MIC50 of aztreonam for all PA isolates, isolates of AZLI-BID group, Day 0
  MIC50: 2 µg/mL (≈ 4.59 µM)
[1]; 0 h, read-out: MIC50 of aztreonam for all PA isolates, isolates of AZLI-Pooled group, Day 0
  MIC50: 2 µg/mL (≈ 4.59 µM)
[1]; 0 h, read-out: MIC50 of aztreonam for all PA isolates, isolates of AZLI-TID group, Day 0
  MIC50: 2 µg/mL (≈ 4.59 µM)
[1]; 0 h, read-out: MIC50 of aztreonam for all PA isolates, isolates of Placebo group, Day 0
  MIC50: ≤ 1 µg/mL
[1]; 0 h, read-out: MIC90 of aztreonam for all PA isolates, isolates of AZLI-BID group, Day 0
  MIC90: 64 µg/mL (≈ 147 µM)
[1]; 0 h, read-out: MIC90 of aztreonam for all PA isolates, isolates of AZLI-Pooled group, Day 0
  MIC90: 32 µg/mL (≈ 73.5 µM)
[1]; 0 h, read-out: MIC90 of aztreonam for all PA isolates, isolates of AZLI-TID group, Day 0
  MIC90: 32 µg/mL (≈ 73.5 µM)
[1]; 0 h, read-out: MIC90 of aztreonam for all PA isolates, isolates of Placebo group, Day 0
  MIC90: 64 µg/mL (≈ 147 µM)
[1]; 0 h, read-out: Maximum MIC of aztreonam for all PA isolates, isolates of AZLI-BID group, Day 0
  MIC: > 2050 µg/mL
[1]; 0 h, read-out: Maximum MIC of aztreonam for all PA isolates, isolates of AZLI-Pooled group, Day 0
  MIC: > 2050 µg/mL
[1]; 0 h, read-out: Maximum MIC of aztreonam for all PA isolates, isolates of AZLI-TID group, Day 0
  MIC: 1020 µg/mL
[1]; 0 h, read-out: Maximum MIC of aztreonam for all PA isolates, isolates of Placebo group, Day 0
  MIC: 1020 µg/mL
[1]; 0 h, read-out: Minimum MIC of aztreonam for all PA isolates, isolates of AZLI-BID group, Day 0
  MIC: ≤ 1 µg/mL
[1]; 0 h, read-out: Minimum MIC of aztreonam for all PA isolates, isolates of AZLI-Pooled group, Day 0
  MIC: ≤ 1 µg/mL
[1]; 0 h, read-out: Minimum MIC of aztreonam for all PA isolates, isolates of AZLI-TID group, Day 0
  MIC: ≤ 1 µg/mL
[1]; 0 h, read-out: Minimum MIC of aztreonam for all PA isolates, isolates of Placebo group, Day 0
  MIC: ≤ 1 µg/mL
[2]; Day 0
  concentration at 10 min: 530000 ng/g
[2]; Day 14
  concentration at 10 min: 677000 ng/g
[2]; Day 28
  concentration at 10 min: 451000 ng/g
[3]; read-out: MIC50 of aztreonam for all PA isolates, isolates of AZLI group, baseline
  MIC50: 4 µg/mL
[3]; read-out: MIC50 of aztreonam for all PA isolates, isolates of Placebo group, baseline
  MIC50: 2 µg/mL
[3]; read-out: MIC90 of aztreonam for all PA isolates, isolates of AZLI group, baseline
  MIC90: 128 µg/mL
[3]; read-out: MIC90 of aztreonam for all PA isolates, isolates of Placebo group, baseline
  MIC90: 64 µg/mL
[3]; read-out: Maximum MIC of aztreonam for all PA isolates, isolates of AZLI group, baseline
  MIC: > 2050 µg/mL
[3]; read-out: Maximum MIC of aztreonam for all PA isolates, isolates of Placebo group, baseline
  MIC: 256 µg/mL
[3]; read-out: Minimum MIC of aztreonam for all PA isolates, isolates of Placebo group, baseline
  MIC: ≤ 1 µg/mL

## Colistin
CF patients; [4]
  FEV1 Change (relative change in FEV1 % predicted, comparison to control after 28 days of therapy): 0%^b
PA; [4]
  PA Density Change (Log10): −0.6 Log10

B1: Pulmozyme: Pulmozyme registration trial comparator (protein, UniProt P24855 23-282, looked up)
Deoxyribonuclease-1: LKIAAFNIQTFGETKMSNATLVSYIVQILSRYDIALVQEVRDSHLTAVGKLLDNLNQDAPDTYHYVVSEPLGRNSYKERYLFVYRPDQVSAVDSYYYDDGCEPCGNDTFNREPAIVRFFSRFTEVREFAIVPLHAAPGDAVAEIDALYDVYLDVQEKWGLEDVMLMGDFNAGCSYVRPSQWSSIRLWTSPTFQWLIPDSADTTATPTHCAYDRIVVAGMLLRGAVVPDSALPFNFQAAYGLSDQLAQAISDHYPVEVMLK
CF patients; 2.5 mg BID/24 weeks
  FEV1 Change (percent change in FEV1 (L), comparison to control after 24 weeks of therapy): 5.8 ± 0.7^c %
CF patients; 2.5 mg TID/24 weeks
  FEV1 Change (percent change in FEV1 (L), comparison to control after 24 weeks of therapy): 5.6 ± 0.7^c %

— patent US7973029B2 (Gilead Sciences, Inc., priority 2007, dated 2011)
